Laboratory results as given in PMC8245078, “Development of novel benzofuran-isatin conjugates as potential antiproliferative agents with apoptosis inducing mechanism in Colon cancer” (Journal of Enzyme Inhibition and Medicinal Chemistry, 2021).

Legend:
[1] = system: SW-620 cells; test: Annexin V-FITC/propidium iodide apoptosis assay; assay type: cell-based, human; settings: for total increase in apoptosis vs control untreated cells: 24 h; for induction of apoptosis (in words): SW-620, 5 and 10 µM; for total increase in apoptosis vs control untreated cells, range: SW-620, over the concentrations 5 and 10 µM
Method: Further investigation for compounds 5a and 5d concerning their potential role of apoptosis induction, using Annexin V-FITC/PI double staining assay, was performed to evaluate their impact on both early and late apoptosis percentages in SW-620 cancer cell lines (Figure 6). […] As shown, compound 5a induced approximately 1.7-folds and 3.8-folds total increase in apoptosis at concentration of 5 µM and 10 µM, respectively, in comparison to the control untreated SW-620 cell line (Figure 6(A)).
Figure 6. (A) AnnexinV/PI apoptosis assay for compound 5a. Tow concentrations (5 and 10 µM) of compound 5a, in addition untreated plate as a control were used to test the apoptotic effect by using Annexin V/PI in SW-620 cell line. Cells were treated with the compound 5a for 24 h. (B) AnnexinV/PI apoptosis assay for compound 5d. Tow concentrations (5 and 10 µM) of compound 5d, in addition untreated plate as a control were used to test the apoptotic effect by using Annexin V/PI in SW-620 cell line. Cells were treated with the compound 5d for 24 h. […] Their printed values are 1.93%, 2.06%, 1.81% in panel A and 0.73%, 2.01%, 1.62% in panel B. […]
2.4. Measurement of Apoptosis by Annexin V-FITC/PI Assay
Induction of apoptosis was measured by Dead Cell Apoptosis Kit with Annexin V FITC and PI, for flow cytometry (Thermofischer scientific, OR, USA) according to the manufacturer’s instruction. SW620 cells were seeded in a 6-well plate (3 × 10^5 cells per well) and treated with the various compound for 24h. Both floating and adherent cells were harvested, pooled together, and incubated with Annexin V-FITC and PI for 15 min on ice in dark. The cells were analyzed by BD FACSCalibur™ cell analyzer (BD Biosciences, CA, USA) at an emission of 530 nm (FL1 channel) and >575 nm (FL3). […]

[2] = system: cleaved PARP in SW-620 cells; test: Western blot analysis of cleaved PARP; assay type: cell-based, human; settings: SW-620, 5 μM and 10 μM, 24 h
From the text: To further examine the possible mechanism of apoptosis, the effect of compounds 5a and 5d on certain apoptosis-related proteins was studied. Bcl2 protein as a critical component of the mitochondrial apoptotic pathway is reported to be overexpressed in numerous tumours causing survival of cancer cell[62]. In addition, it was reported that caspase activation during apoptosis leads to proteolytic cleavage of several cellular substrates participating in DNA reparation including [poly (ADP-ribose) polymerase][63]. Therefore, the impact of compounds 5a and 5d on the anti-apoptotic protein Bcl2 and the level of cleaved PARP was examined (Figure 7). […]
2.5. Western Blot Analysis
All cells were seeded in a 100 mm dish (1 × 10^6 cells per dish) in 5% CO2 at 37 °C in the appropriate culture medium. The cells with around 50% confluency were treated with compounds for 24h. At the experiment day, cells were washed with 1x PBS, harvested and lysed in RIPA lysis buffer, combined with protease inhibitors, (Sigma-Aldrich, St. Louis, MO, USA) as described previously (39)). The total protein concentration was evaluated by the colorimetric Bradford protein assay (BIO-RAD inc, CA, USA) at 595 nm absorbance. Lysates were loaded in […]
equal concentration and separated by sodium dodecyl sulfate-polyacrylamide gel electrophoresis (SDS-PAGE) and then transferred to a nitrocellulose membrane by semi-dry. […]

[3] = system: HCT-116; assay type: cell-based; settings: Homo sapiens; HCT-116, five-dose test
[4] = system: U251; assay type: cell-based, human; settings: U251, five-dose test
[5] = system: MALME-3M; assay type: cell-based, human; settings: five-dose test
[6] = system: SK-MEL-5; assay type: cell-based; settings: Homo sapiens; SK-MEL-5, five-dose test
[7] = system: IGROV1; assay type: cell-based; settings: Homo sapiens, IGROV-1; IGROV1, five-dose test
[8] = system: OVCAR-8; assay type: cell-based; settings: OVCAR-8, five-dose test
[9] = system: SK-OV-3; assay type: cell-based, human; settings: SK-OV-3, five-dose test
[10] = system: A498; assay type: cell-based, human; settings: A498, five-dose test
[11] = system: DU-145; assay type: cell-based; settings: Homo sapiens; DU-145, five-dose test
[12] = system: HS 578 T; assay type: cell-based; settings: five-dose test
[13] = system: BT-549; assay type: cell-based; settings: BT-549, five-dose test
[14] = system: Ovarian Cancer subpanel; assay type: cell-based, human
[15] = system: Breast Cancer subpanel; assay type: cell-based, human

For Cc1c(C(=O)N/N=C2\C(=O)Nc3ccccc32)oc2ccccc12 [Compound 5a], the “total increase in apoptosis vs control untreated cells” value ([1]; SW-620, 5 µM) was “approximately 1.7 folds”, the “total increase in apoptosis vs control untreated cells” value ([1]; SW-620, 10 µM) was about 3.8 folds and the “induction of apoptosis (in words)” value [1] was “dose dependent induction of apoptosis”. For the same compound, the “total increase in apoptosis vs control untreated cells, range” value [1] was 1.7–3.8 folds and the “level of cleaved PARP (Western blot, in words)” value [2] was “significant increase”.

Work on COc1ccc2c(c1)/C(=N/NC(=O)c1oc3ccccc3c1C)C(=O)N2 [Compound 5d] yielded a GI50 [3] of 1920 nM, a GI50 ([4]; Homo sapiens, U-251) of 2030 nM and a TGI [4] of 4260 nM. The GI50 ([5]; Homo sapiens) was 1810 nM, the TGI [5] was 3790 nM and the LC50 (50% lethal concentration) [6] was over 100000 nM. It also gave a GI50 [7] of 2100 nM, an LC50 [7] of over 100000 nM and a GI50 ([8]; Homo sapiens) of 3220 nM. The LC50 ([8]; Homo sapiens) was over 100000 nM, the TGI [8] was over 100000 nM and the GI50 ([9]; Homo sapiens) was 1820 nM. For the same compound, the TGI [9] was 3830 nM, the TGI [10] was 4040 nM and the GI50 ([10]; Homo sapiens) was 1630 nM. It also gave an LC50 [11] of over 100000 nM, a GI50 ([12]; Homo sapiens) of 2410 nM and an LC50 ([12]; Homo sapiens) of over 100000 nM. The TGI [12] was 7720 nM, the TGI [13] was 33700 nM and the GI50 ([13]; Homo sapiens) was 5380 nM. It also gave an LC50 (concentration causing 50% net cell kill) ([13]; Homo sapiens) of over 100000 nM, a GI50 ([14]; Homo sapiens, Ovarian Cancer subpanel, read-out: MG-MID (GI50 average of the subpanel)) of 2290 nM and a Selectivity index ([14]; full panel MID / subpanel MID, Ovarian Cancer) of 1.09. For the same compound, the GI50 ([15]; Homo sapiens, Breast Cancer subpanel, read-out: MG-MID (GI50 average of the subpanel)) was 2830 nM, the Selectivity index ([15]; full panel MID / subpanel MID, Breast Cancer) was 0.88 and the “total increase in apoptosis vs control untreated cells” value ([1]; SW-620, 5 µM) was about 2.9 folds. For the same compound, the “total increase in apoptosis vs control untreated cells” value ([1]; SW-620, 10 µM) was about 3.8 folds, the “induction of apoptosis (in words)” value [1] was “dose dependent induction of apoptosis” and the “total increase in apoptosis vs control untreated cells, range” value [1] was 2.9–3.8 folds. The “level of cleaved PARP (Western blot, in words)” value [2] was “significant increase”.
